Experiments:
Assay type in all cases: physicochemical
[1] = Emulsifiability and stability of emulsions: state of dispersion observed (Example 1); conditions: for Just after preparation (state of dispersion): 0.1 g azacycloalkane derivative + 5.0 ml; for After 3 days standing (state of dispersion): room temperature
Protocol: Using 1-[2-(decylthio)ethyl]azacyclopentan-2-one chosen from the azacycloalkane derivatives, and three emulsifying agents as follows, emulsifiabilities and stabilities of the emulsions were examined:
(§1) […] The mixture was agitated under 15,000 rpm for 1 minute by Biomixer (NIHON SEIKI SEISAKUSHO) to prepare each emulsion. The state of dispersion just after the preparation and after 3 days standing at room temperature was observed. The turbidity just after the preparation was measured by extinction at 650 nm, and used as the index of emulsifiability.

[2] = Turbidity just after preparation by extinction, index of emulsifiability (Example 1)
Protocol: as §1

[3] = Stabilities of emulsions relating to added concentration of the azacycloalkane derivative (Example 2); conditions: for Observation after 3 days standing / Observation after 7 days standing: room temperature
Protocol: Each 5 ml of a 1% (W/V) solution preliminarily prepared by dissolving dispotassium glycyrrhizate in distilled water was poured in each of 8 10-ml-test tubes, and thereto was added 1[2-(decylthio)ethyl] azacyclopentan-2-one chosen from the azacycloalkane derivatives so as to make a concentration ranging from 0 to 10%. Then, the mixture was agitated for 1 minute using Biomixer (NIHON SEIKI SEISAKUSHO) (15,000 rpm), to prepare each emulsion. The state of dispersion just after the preparation,or after 3 days or 7 days standing at room temperature was observed.

[4] = concentration 1.0% in 1% (W/V) dipotassium glycyrrhizate
[5] = concentration 2.0% in 1% (W/V) dipotassium glycyrrhizate

With CC1(C)[C@@H](O[C@H]2O[C@H](C(=O)[O-])[C@@H](O)[C@H](O)[C@H]2O[C@@H]2O[C@H](C(=O)[O-])[C@@H](O)[C@H](O)[C@H]2O)CC[C@]2(C)[C@H]3C(=O)C=C4[C@@H]5C[C@@](C)(C(=O)O)CC[C@]5(C)CC[C@@]4(C)[C@]3(C)CC[C@@H]12.[K+].[K+] [dipotassium glycyrrhizate] the “Just after preparation (state of dispersion)” value (shortened to “Just … (state of dispersion)”) ([1]; emulsifying agent 0.5%) was “White clear”, the “After 3 days standing (state of dispersion)” value ([1]; emulsifying agent 0.5%) was “White clear” and the “Just … (state of dispersion)” value ([1]; emulsifying agent 1.0%) was “White clear”. The “After 3 days standing (state of dispersion)” value ([1]; emulsifying agent 1.0%) was “White clear”, the “Just … (state of dispersion)” value ([1]; emulsifying agent 2.0%) was “White clear” and the “After 3 days standing (state of dispersion)” value ([1]; emulsifying agent 2.0%) was “White clear”. For the same compound, the “Just … (state of dispersion)” value ([1]; emulsifying agent 3.0%) was “White clear”, the “After 3 days standing (state of dispersion)” value ([1]; emulsifying agent 3.0%) was “White clear” and the “emulsification (in words)” value ([1]; emulsifying agent at 0.1-5%) was “good emulsification”. The “dissolution (in words)” value ([1]; emulsifying agent at 4-5%) was “full dissolution”, the “Turbidity (650 nm)” value ([2]; emulsifying agent 0.1%) was 1.284 and the “Turbidity (650 nm)” value ([2]; emulsifying agent 0.5%) was 0.459. For the same compound, the “Turbidity (650 nm)” value ([2]; emulsifying agent 1.0%) was 0.437, the “Turbidity (650 nm)” value ([2]; emulsifying agent 2.0%) was 0.405 and the “Turbidity (650 nm)” value ([2]; emulsifying agent 3.0%) was 0.346. For the same compound, the “Turbidity (650 nm)” value ([2]; emulsifying agent 4.0%) was 0.006 and the “Turbidity (650 nm)” value ([2]; emulsifying agent 5.0%) was 0.006.

With CCCCCCCCCCSCCN1CCCC1=O [1-[2-(decylthio)ethyl]azacyclopentan-2-one] the “emulsification and stability (in words)” value ([3]; concentration 0.01% to 10%, using 1% dipotassium glycyrrhizate) was “exhibited good emulsification and gave a stable emulsion”, the “Observation just after preparation” value [3, 4] was “White clear” and the “Observation after 3 days standing” value [3, 4] was “White clear”. The “Observation after 7 days standing” value [3, 4] was “White clear”, the “Observation just after preparation” value [3, 5] was “White clear” and the “Observation after 3 days standing” value [3, 5] was “White clear”. For the same compound, the “Observation after 7 days standing” value [3, 5] was “White clear”.

From patent US5281580A, “Calcitonin-containing emulsion for nasal administration” (Toyo Jozo Company, Ltd., priority 1990, dated 1994)
